From paper PMC8989888, “Development of optimized drug-like small molecule inhibitors of the SARS-CoV-2 3CL protease for treatment of COVID-19” (Nature Communications, 2022)
pEC50, pIC50: −log10 of the molar value. Several values for one entry are separate records, joined by “and”; a condition that tells them apart may be missing. Equal values may be shown once. Entries after “also recorded” stand apart in the source; their conditions may differ. Read-outs that look alike come from different tables or passages of the source.

What was measured:
[1] = mouse, in vivo, po
Elastase = Elastase (Homo sapiens, UniProt P08246); test: biochemical
Sequence of Elastase (P08246 30-267): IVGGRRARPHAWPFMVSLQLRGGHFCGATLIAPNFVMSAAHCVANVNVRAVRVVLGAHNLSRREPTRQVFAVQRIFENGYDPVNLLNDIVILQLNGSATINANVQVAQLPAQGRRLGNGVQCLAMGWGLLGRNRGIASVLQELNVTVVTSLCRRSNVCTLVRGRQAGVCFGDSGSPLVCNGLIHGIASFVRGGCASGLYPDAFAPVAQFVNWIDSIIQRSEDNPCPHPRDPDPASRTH

Thrombin a = Thrombin a (Homo sapiens, UniProt P00734); test: biochemical
[2] = In vivo safety study of NK01-63 (body weight); settings: C57BL/6 mice, 20 mg/kg IP or PO once per day, 14 days, vs vehicle
ACE2 = ACE2 (Homo sapiens, UniProt Q9BYF1); test: biochemical
Sequence of ACE2 (Q9BYF1 18-740): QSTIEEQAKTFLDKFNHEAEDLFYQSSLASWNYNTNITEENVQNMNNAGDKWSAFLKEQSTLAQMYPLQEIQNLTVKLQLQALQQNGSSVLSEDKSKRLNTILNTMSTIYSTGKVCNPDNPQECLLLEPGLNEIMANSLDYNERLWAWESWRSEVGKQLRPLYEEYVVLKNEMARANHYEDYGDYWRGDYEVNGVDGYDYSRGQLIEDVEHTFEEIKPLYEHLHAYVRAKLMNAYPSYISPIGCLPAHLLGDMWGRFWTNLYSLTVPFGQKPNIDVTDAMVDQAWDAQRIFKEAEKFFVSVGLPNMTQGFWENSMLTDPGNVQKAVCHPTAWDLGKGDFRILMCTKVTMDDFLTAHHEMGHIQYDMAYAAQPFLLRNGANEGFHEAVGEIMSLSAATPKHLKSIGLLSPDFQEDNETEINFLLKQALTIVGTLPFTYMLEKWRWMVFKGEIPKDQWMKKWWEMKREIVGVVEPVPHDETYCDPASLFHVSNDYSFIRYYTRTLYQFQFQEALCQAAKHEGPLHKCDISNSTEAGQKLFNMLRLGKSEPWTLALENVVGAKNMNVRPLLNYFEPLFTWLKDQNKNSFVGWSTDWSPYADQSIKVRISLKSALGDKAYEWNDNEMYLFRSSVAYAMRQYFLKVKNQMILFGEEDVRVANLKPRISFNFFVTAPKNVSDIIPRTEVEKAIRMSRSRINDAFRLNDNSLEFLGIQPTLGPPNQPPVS

[3] = test system: MERS Coronavirus (strain: EMC); test: microbe, parasite or virus in culture; assay type: cell-based, MERS-CoV
[4] = test system: SARS coronavirus (strain: Urbani); test: organism not typed; assay type: cell-based, SARS-CoV
[5] = test system: Human coronavirus beta (strain: OC43); test: organism not typed; assay type: cell-based, HCoV-OC43; settings: Huh-7, read-out: EC50, human coronavirus OC43
[6] = test system: Influenza A H1N1 (strain: California/07/2009); test: microbe, parasite or virus in culture; assay type: cell-based
SARS-CoV-2 [7] = test: microbe, parasite or virus in culture; assay type: cell-based
TMPRSS2 = TMPRSS2 (Homo sapiens, UniProt O15393); test: biochemical
Sequence of TMPRSS2 (O15393 106-492): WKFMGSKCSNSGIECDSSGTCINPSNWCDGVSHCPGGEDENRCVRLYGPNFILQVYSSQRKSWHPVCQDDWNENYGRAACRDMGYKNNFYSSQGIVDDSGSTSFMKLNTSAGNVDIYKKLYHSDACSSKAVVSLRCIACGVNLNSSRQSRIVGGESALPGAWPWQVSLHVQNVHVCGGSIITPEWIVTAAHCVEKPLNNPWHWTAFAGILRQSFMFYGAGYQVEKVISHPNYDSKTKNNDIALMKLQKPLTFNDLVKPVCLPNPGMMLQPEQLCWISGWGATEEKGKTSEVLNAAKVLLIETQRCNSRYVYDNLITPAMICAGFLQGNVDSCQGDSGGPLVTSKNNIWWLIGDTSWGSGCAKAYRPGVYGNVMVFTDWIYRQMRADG

Urokinase = Urokinase (Homo sapiens, UniProt P00749); test: biochemical
SARS-CoV-2 [8] = test: microbe, parasite or virus in culture; settings: Severe acute respiratory syndrome coronavirus 2, Caco-2, 72 h, read-out: SARS-CoV-2 Caco-2 EC90
Furin = Furin (Homo sapiens, UniProt P09958); test: biochemical
Sequence of Furin (P09958 108-715): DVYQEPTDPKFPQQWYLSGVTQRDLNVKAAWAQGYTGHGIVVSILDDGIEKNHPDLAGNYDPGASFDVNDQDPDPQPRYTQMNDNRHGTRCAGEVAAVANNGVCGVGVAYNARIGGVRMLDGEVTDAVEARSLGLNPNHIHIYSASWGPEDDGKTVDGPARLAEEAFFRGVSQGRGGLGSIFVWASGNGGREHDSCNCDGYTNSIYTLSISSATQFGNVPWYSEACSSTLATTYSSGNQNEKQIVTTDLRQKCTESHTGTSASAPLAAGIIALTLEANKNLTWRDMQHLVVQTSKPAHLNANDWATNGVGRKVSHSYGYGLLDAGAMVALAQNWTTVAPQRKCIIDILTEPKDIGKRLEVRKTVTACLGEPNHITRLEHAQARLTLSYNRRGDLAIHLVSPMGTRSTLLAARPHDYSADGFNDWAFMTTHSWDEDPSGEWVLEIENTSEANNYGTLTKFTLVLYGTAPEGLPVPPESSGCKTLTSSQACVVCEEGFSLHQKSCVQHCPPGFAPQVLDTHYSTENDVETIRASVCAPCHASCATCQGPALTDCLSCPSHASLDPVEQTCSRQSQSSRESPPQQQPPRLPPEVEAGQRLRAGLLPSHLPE

Caspase 8 = Caspase 8 (Homo sapiens, UniProt Q14790); test: biochemical
Sequence of Caspase 8 (Q14790 217-479): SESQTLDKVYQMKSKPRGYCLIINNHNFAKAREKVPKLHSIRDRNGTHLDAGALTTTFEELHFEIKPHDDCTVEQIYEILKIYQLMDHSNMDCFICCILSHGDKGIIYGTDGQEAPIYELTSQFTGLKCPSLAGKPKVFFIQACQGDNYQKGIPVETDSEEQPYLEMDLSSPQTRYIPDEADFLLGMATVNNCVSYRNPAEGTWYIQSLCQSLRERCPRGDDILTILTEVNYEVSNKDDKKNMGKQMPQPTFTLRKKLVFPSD

[9] = both, C57BL/6, mouse, in vivo
Trypsin = Trypsin (Bos taurus, UniProt P00760); test: Protease selectivity panel: Trypsin; assay type: biochemical; settings: Bovine pancreas
Sequence of Trypsin (P00760 24-246): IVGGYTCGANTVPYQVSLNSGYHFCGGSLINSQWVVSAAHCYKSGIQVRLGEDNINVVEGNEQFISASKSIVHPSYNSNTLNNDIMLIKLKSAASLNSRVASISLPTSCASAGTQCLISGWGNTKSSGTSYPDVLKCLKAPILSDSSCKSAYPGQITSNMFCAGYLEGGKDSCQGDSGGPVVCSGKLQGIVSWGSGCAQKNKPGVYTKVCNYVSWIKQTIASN

MMP 1 = MMP 1 (Homo sapiens, UniProt P03956); test: biochemical
Sequence of MMP 1 (P03956 100-268): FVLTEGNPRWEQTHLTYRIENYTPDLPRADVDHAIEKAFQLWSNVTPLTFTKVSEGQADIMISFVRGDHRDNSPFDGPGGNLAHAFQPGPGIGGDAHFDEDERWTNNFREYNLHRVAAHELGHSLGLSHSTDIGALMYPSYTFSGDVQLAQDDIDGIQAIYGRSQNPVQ

Cathepsin L = molecular target: T1, Cathepsin L (Homo sapiens, UniProt P07711); test: Protease selectivity panel: Cathepsin L; assay type: biochemical
T1 construct: Human liver; from tissue; host or cells: human liver
T1 sequence (P07711 114-333): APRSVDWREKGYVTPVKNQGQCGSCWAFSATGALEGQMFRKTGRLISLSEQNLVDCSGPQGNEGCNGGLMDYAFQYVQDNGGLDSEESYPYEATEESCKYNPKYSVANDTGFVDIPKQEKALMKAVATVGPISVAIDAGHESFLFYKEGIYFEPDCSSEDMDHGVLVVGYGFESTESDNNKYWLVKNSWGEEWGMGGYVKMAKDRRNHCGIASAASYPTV

Cathepsin K = Cathepsin K (Homo sapiens, UniProt P43235); test: Protease selectivity panel: Cathepsin K
Sequence of Cathepsin K (P43235 115-329): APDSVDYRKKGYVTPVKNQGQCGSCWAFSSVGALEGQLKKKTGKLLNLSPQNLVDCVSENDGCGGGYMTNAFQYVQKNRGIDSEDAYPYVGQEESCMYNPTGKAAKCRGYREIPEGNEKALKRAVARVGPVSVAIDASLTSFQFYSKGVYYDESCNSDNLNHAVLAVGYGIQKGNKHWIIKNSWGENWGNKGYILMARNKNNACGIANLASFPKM

Cathepsin S = Cathepsin S (Homo sapiens, UniProt P25774); test: Protease selectivity panel: Cathepsin S
Sequence of Cathepsin S (P25774 115-331): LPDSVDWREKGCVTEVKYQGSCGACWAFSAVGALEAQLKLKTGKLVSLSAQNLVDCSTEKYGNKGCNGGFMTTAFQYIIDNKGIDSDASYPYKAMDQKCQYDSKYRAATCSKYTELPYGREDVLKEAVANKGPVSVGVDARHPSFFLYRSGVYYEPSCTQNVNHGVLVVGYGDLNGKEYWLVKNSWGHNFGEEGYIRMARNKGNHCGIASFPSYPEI

PLpro = PLpro (Severe acute respiratory syndrome coronavirus 2, UniProt P0DTD1); test: Protease selectivity panel: PLpro; assay type: biochemical; settings: SARS-CoV-2 recombinant
SARS-CoV-2 3CL protease [10] = molecular target: T2, SARS-CoV-2 3CL protease (Severe acute respiratory syndrome coronavirus 2, UniProt P0DTD1); test: biochemical
Cathepsin B = Cathepsin B (Homo sapiens, UniProt P07858); test: biochemical
[11] = 2 mg/ml (3.5 mM) in water
ACE1 = ACE1 (Homo sapiens, UniProt P12821); test: biochemical
Sequence of ACE1 (P12821 30-1261): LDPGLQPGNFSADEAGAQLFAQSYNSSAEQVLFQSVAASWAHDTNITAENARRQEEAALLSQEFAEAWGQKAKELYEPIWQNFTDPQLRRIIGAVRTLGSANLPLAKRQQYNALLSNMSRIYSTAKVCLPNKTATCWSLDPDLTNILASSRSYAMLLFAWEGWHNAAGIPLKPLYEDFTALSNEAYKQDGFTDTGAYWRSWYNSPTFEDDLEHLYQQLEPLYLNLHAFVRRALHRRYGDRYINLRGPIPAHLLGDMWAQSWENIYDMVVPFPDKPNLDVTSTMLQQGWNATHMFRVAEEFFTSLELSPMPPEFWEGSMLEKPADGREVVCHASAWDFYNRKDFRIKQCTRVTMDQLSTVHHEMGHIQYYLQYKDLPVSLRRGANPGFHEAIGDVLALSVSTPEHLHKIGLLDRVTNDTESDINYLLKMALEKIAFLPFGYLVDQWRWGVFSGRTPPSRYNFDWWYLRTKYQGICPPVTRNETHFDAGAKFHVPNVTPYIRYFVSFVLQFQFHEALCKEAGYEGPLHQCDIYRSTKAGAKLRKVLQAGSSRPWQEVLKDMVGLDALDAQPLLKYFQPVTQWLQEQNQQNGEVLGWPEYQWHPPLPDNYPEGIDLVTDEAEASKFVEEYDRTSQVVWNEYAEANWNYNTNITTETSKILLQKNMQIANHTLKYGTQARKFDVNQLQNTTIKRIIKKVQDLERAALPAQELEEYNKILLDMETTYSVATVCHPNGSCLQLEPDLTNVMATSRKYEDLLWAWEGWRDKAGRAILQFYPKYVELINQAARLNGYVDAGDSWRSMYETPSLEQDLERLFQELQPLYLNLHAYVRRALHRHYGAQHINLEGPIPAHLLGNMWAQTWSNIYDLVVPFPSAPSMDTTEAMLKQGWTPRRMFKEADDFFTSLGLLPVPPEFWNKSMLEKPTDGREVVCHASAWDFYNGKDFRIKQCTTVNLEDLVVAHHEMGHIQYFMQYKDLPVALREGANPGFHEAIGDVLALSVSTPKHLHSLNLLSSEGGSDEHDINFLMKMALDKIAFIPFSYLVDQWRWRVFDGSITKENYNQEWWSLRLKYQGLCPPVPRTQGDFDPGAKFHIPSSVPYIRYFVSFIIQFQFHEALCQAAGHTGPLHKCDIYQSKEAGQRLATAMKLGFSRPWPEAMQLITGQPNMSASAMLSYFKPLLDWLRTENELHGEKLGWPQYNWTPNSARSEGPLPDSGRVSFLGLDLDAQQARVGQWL

[12] = test system: Human coronavirus alpha (strain: 229E); test: organism not typed; assay type: cell-based, HCoV-229E
Factor Xa = Factor Xa (Homo sapiens, UniProt P00742); test: biochemical
Sequence of Factor Xa (P00742 235-488): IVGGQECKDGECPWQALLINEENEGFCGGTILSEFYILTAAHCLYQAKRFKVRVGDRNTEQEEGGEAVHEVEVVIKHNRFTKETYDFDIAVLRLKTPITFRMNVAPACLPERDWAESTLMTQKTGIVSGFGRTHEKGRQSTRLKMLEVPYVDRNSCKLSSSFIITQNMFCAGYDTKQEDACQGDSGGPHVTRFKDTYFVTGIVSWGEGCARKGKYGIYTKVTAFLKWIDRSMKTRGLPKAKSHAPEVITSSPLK
Sequence of Factor Xa (P00742 41-179): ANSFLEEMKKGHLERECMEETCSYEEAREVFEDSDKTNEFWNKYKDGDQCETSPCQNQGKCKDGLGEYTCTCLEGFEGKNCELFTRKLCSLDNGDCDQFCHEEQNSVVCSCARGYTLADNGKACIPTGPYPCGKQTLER

SARS-CoV-2 [13] = test: microbe, parasite or virus in culture; assay type: cell-based; settings: Severe acute respiratory syndrome coronavirus 2, read-out: SARS-CoV-2 EC50
SARS-CoV-2 3CL protease [14] = molecular target: T2, SARS-CoV-2 3CL protease; test: biochemical; settings: for pIC50: read-out: SARS-CoV-2 3CLpro IC50

CC(C)C[C@H](NC(=O)OCc1cccc(C(F)(F)F)c1)C(=O)N[C@@H](C[C@@H]1CCNC1=O)C(O)S(=O)(=O)O (stereo partly drawn) [NK01-63]
Body weight relative to day 0 (Figure 6A) [1]: 100
pIC50 (Elastase): < 4.00
pIC50 (Thrombin a): < 4.00
body weight change / in vivo toxicity [2]: no in vivo toxicity via either route of administration; also recorded: No significant change in body weight
pIC50 (ACE2): < 4.00
pEC50 ([3]; Middle East respiratory syndrome-related coronavirus, Vero 76, read-out: MERS-CoV Vero 76 EC50): > 6.00
pEC50 ([3]; read-out: MERS-CoV Vero 76 EC50): 6.09
pEC50 ([4]; Vero 76, read-out: SARS-CoV Vero 76 EC50): > 5.52
pEC50 ([4]; read-out: SARS-CoV Vero 76 EC50): 5.68
pEC50 [5]: > 7.00
effect on replication of Influenza H1N1 (in words) [6]: no effect was observed
pEC50 ([6]; Influenza A virus, H1N1, MDCK, read-out: Influenza A (H1N1) MDCK EC50): < 4.00
inhibition of SARS-CoV-2 (Figure s17b dose-response, replicate values) (SARS-CoV-2 [7]): 85.8805 and 70.4035 and 120.64 and 101.121 and 104.666 and 80.4107 and 75.7397 and 52.4625 and 52.0629 and 53.1789 and 26.443 and 29.7439 and 43.7589 and 41.2695 and 18.2065 and 24.2009 and 38.2936 and 12.6905 and -1.598 and 19.9884 and -12.0156
pEC50 (SARS-CoV-2 [7]; Severe acute respiratory syndrome coronavirus 2, 24 h, read-out: SARS-CoV-2 Huh-7ACE2 EC50): 8.22
pIC50 (TMPRSS2): < 4.00
pIC50 (Urokinase): < 4.00
EC90 (SARS-CoV-2 [8]): 81 nM
pIC50 (Furin): < 4.00
pIC50 (Caspase 8): 4.74
concentration in plasma and lung as multiple of EC90 [9]: > 100 x EC90
pIC50 (Trypsin): < 4.00
pIC50 (MMP 1): < 4.00
pIC50 (Cathepsin L; Human liver, substrate 1 (Z-FR-AMC), […] Cathepsin L, read-out: IC50): 8.22
pIC50 (Cathepsin L; Human liver, substrate 2 (MCA-PLGL-Dap(Dnp)-AR-NH2), 0.5 nM Cathepsin L, read-out: IC50): 6.77
pIC50 (Cathepsin L; read-out: IC50 on human cathepsin L): 8.22
pIC50 (Cathepsin K): 7.40
pIC50 (Cathepsin S): 7.52
pIC50 (PLpro): < 4.00
observed inactivation rate vs compound concentration (Figure S19, replicate values) (SARS-CoV-2 3CL protease [10]): 0.0289 and 0.04017 and 0.02561 and 0.0288 and 0.05998 and 0.02398 and 0.0512 and 0.02223 and 0.03571 and 0.0324 and 0.05689 and 0.02237 and 0.0081 and 0.01635 and 0.01687
kinact/KI (SARS-CoV-2 3CL protease [10]; read-out: SARS-CoV-2 3CLpro kinact/KI): 73300 M⁻¹ s⁻¹
pIC50 (Cathepsin B): 5.96
appearance of dosing solution in water [11]: the solution was clear
pIC50 (ACE1): < 4.00
pEC50 ([12]; Huh-7, read-out: EC50, human coronavirus 229E): > 7.00
pEC50 ([12]; Huh-7, read-out: HCoV-229E Huh-7 EC50): 6.77
pIC50 (Factor Xa): < 4.00
CC50 (in vitro): > 100000 nM
pEC50 (SARS-CoV-2 [13]): 6.84
pIC50 (SARS-CoV-2 3CL protease [14]; 20 nM protease): 7.80
normalized activity, dose-response curve (Figure S16) (SARS-CoV-2 3CL protease [14]; Concentration of inhibitor (nM) 0.19382): 93.111 and 89.2676
normalized activity, dose-response curve (Figure S16) (SARS-CoV-2 3CL protease [14]; Concentration of inhibitor (nM) 0.49485): 89.4126 and 81.5809
normalized activity, dose-response curve (Figure S16) (SARS-CoV-2 3CL protease [14]; Concentration of inhibitor (nM) 0.79588): 77.0123 and 75.7796
normalized activity, dose-response curve (Figure S16) (SARS-CoV-2 3CL protease [14]; Concentration of inhibitor (nM) 1.09691): 63.0167 and 61.2038
normalized activity, dose-response curve (Figure S16) (SARS-CoV-2 3CL protease [14]; Concentration of inhibitor (nM) 1.39794): 43.8724 and 49.3111
normalized activity, dose-response curve (Figure S16) (SARS-CoV-2 3CL protease [14]; Concentration of inhibitor (nM) 1.69897): 23.8579 and 30.4568
normalized activity, dose-response curve (Figure S16) (SARS-CoV-2 3CL protease [14]; Concentration of inhibitor (nM) 2): 10.3698 and 13.7056
normalized activity, dose-response curve (Figure S16) (SARS-CoV-2 3CL protease [14]; Concentration of inhibitor (nM) 2.30103): 8.412 and 10.6599
normalized activity, dose-response curve (Figure S16) (SARS-CoV-2 3CL protease [14]; Concentration of inhibitor (nM) 2.60206): 5.004 and 8.702
normalized activity, dose-response curve (Figure S16) (SARS-CoV-2 3CL protease [14]; Concentration of inhibitor (nM) -0.10721): 91.5881 and 97.1719
normalized activity, dose-response curve (Figure S16) (SARS-CoV-2 3CL protease [14]; Concentration of inhibitor (nM) -0.40824): 100 and 96.1566
pIC50 (SARS-CoV-2 3CL protease [14]; Supplementary Table 2): 8.22
